# Laboratory results taken from EP0341661A2, “Peptide-drug compositions containing alpha-aminoboronic acid derivatives” (THE DU PONT MERCK PHARMACEUTICAL COMPANY, priority 1988, dated 1989).
# How the values were obtained:
# [1] = test system: aminopeptidases; assay: In situ nasal perfusion: degradation of 100 µM leucine enkephalin in the nasal perfusate; assay type: in vivo, Sprague-Dawley rats; conditions: for % Leucine Enkephalin Remaining: 0.1 µM inhibitor; for order of inhibition of degradation: 0.1 µM boroleucine, 10 µM bestatin, 100 µM puromycin
# Protocol: In order to evaluate the effectiveness of the α-aminoboronic acid derivative inhibitors of this invention, an animal model was used (according to A. Hussain, J. Furaj, A. Yukihiko and J. E. Truelove, Biochem. Biophys. Res. Com. 133, 923, 1985) to assess the degradation of proteins and peptides in situ and in vivo in situ in the nasal cavity of rats. The method involved the use of Sprague-Dawley rats weighing approximately 300 grams. Each rat was anesthetized with sodium pentobarbitol (50 mg/kg). An incision was made in the neck and the trachea was canulated with PE 240 tubing. For the in situ studies, a second tube, which served to introduce the perfusing solution, was inserted through the esophagus to the posterior part of the nasal cavity. The nasopalatine was closed with an adhesive to prevent drainage of the perfusing solution from the nasal to the oral cavity. For the in vivo in situ studies, the esophagus was canulated using PE 240 tubing closed at one end. The closed end was pushed to the posterior end of the nasal passage and then tied in place. The nasopalatine was closed with an adhesive to prevent drainage of the perfusing solution from the nasal to the oral cavity. The rats were dosed in one nostril with 50 µl of peptide solution in two forms; the control solution had no inhibitor added, the test solution had inhibitor added at concentrations specified in the examples shown below. The dosing solution was 0.1 M phosphate buffer (pH 7.4). At certain time intervals (one rat/time interval), the drug was washed from the nose via the other nostril with 10 ml of 0.1 M phosphate buffer (pH 3.8) using a peristaltic pump. The nasal washing was then placed in a 10 ml volumetric flask and adjusted to 10 ml with the same buffer and analyzed for the peptide by HPLC. The analysis of leucine enkephalin and its major metabolite involved taking aliquots of samples, diluting them with 200 µl of 0.1 M citric acid (pH 2.3) to quench hydrolysis and subjecting the samples to analysis (for in vivo in situ studies, the washings were injected as they were obtained). High Pressure Liquid Chromatography (HPLC) was run on a 4.6 x 250 mm C₈ column. The mobile phase consisted of 0.1 M NaH₂PO₄-H₃PO₄-acetonitrile (916 : 5 : 275) and was delivered at a flow rate of 1.7 ml/min. Detection was by UV at 210 nm. Retention times for leucine enkephalin and its major degradation product, Des-Tyr-leucine enkephalin were 7.3 and 4.8 min., respectively. Data were calculated as % of leucine enkephalin remaining in the nasal perfusate as a function of time, counting the concentration at zero time as 100%. In this example, a 10 ml solution of 0.1 M phosphate buffer solution (pH 7.4) containing 100 µM leucine enkephalin (the peptide) in the absence or presence of 0.1 µM 3-methyl-1(4,4,5,5-tetramethyl-1,3,2-dioxaborolane-2-yl)-1-butamine, trifluoroacetic acid salt (boroleucine) as the inhibitor was perfused nasally in rats as described above. A 10 ml portion of the peptide solution was placed in a water-jacketed container, maintained at 37°C and circulated through the nasal cavity of rats using a peristaltic pump. The perfusing solution was passed through the nasal cavity, out the nostrils, through a funnel, and returned to the water-jacketed container. The perfusate was analyzed by the ANALYTICAL METHOD described above.
# [2] = test system: aminopeptidases; assay: as above; assay type: in vivo, Sprague-Dawley rats; conditions: 10 µM inhibitor
# [3] = in vivo, cited from earlier work
compound,measurement,setting,value
"CC(C)C(N)B1OC(C)(C)C(C)(C)O1.O=C(O)C(F)(F)F (stereo not drawn) [borovaline, 4,4,5,5-tetramethyl-α-(1-methylethyl)-1,3,2-dioxaborolane-2-methanamine, trifluoroacetic acid salt]",% Leucine Enkephalin Remaining,[1]; 0 min,100.0±0.0%
same,% Leucine Enkephalin Remaining,[1]; 5 min,96.3±1.9%
same,% Leucine Enkephalin Remaining,[1]; 10 min,95.7±1.5%
same,% Leucine Enkephalin Remaining,[1]; 20 min,94.8±1.4%
same,% Leucine Enkephalin Remaining,[1]; 30 min,91.6±1.6%
same,% Leucine Enkephalin Remaining,[1]; 45 min,89.1±2.5%
same,% Leucine Enkephalin Remaining,[1]; 60 min,86.2±2.5%
same,% Leucine Enkephalin Remaining,[1]; 90 min,78.3±4.3%
same,comparison of the inhibitory effect of equimolar concentrations,[1]; 0.1 µM of each inhibitor,superior to boroalanine
"CC(C)C[C@H](NC(=O)[C@@H](O)[C@H](N)Cc1ccccc1)C(=O)O [Bestatin, bestatin, reference compound]",order of inhibition of degradation,[1],boroleucine> bestatin> puromycin
same,% of leucine enkephalin remaining in the nasal perfusate,"[1]; 10 µM inhibitor, 0 min",100.0±0.0%
same,% of leucine enkephalin remaining in the nasal perfusate,"[1]; 10 µM inhibitor, 10 min",94.7±1.7%
same,% of leucine enkephalin remaining in the nasal perfusate,"[1]; 10 µM inhibitor, 30 min",86.6±3.8%
same,% of leucine enkephalin remaining in the nasal perfusate,"[1]; 10 µM inhibitor, 45 min",79.0±5.3%
same,% of leucine enkephalin remaining in the nasal perfusate,"[1]; 10 µM inhibitor, 90 min",57.3±8.8%
same,% of leucine enkephalin remaining in the nasal perfusate,[2]; 5 min,97.3±1.6%
same,% of leucine enkephalin remaining in the nasal perfusate,[2]; 20 min,90.0±3.3%
same,% of leucine enkephalin remaining in the nasal perfusate,[2]; 60 min,72.3±6.7%
"CC(N)B1OC(C)(C)C(C)(C)O1.O=C(O)C(F)(F)F (stereo not drawn) [boroalanine, α,4,4,5,5-pentamethyl-1,3,2-dioxaborolane-2-methanamine, trifluoroacetic acid salt]",% Leucine Enkephalin Remaining,[1]; 0 min,100.0± 0.0%
same,% Leucine Enkephalin Remaining,[1]; 5 min,94.7± 3.0%
same,% Leucine Enkephalin Remaining,[1]; 10 min,91.9± 2.1%
same,% Leucine Enkephalin Remaining,[1]; 20 min,88.5± 2.2%
same,% Leucine Enkephalin Remaining,[1]; 30 min,84.1± 3.1%
same,% Leucine Enkephalin Remaining,[1]; 45 min,77.5± 4.4%
same,% Leucine Enkephalin Remaining,[1]; 60 min,69.9± 6.7%
same,% Leucine Enkephalin Remaining,[1]; 90 min,56.4±12.1%
"COc1ccc(C[C@H](N)C(=O)N[C@H]2[C@@H](O)[C@H](n3cnc4c(N(C)C)ncnc43)O[C@@H]2CO)cc1 [Puromycin, puromycin, reference compound]",order of inhibition of degradation,[1],boroleucine> bestatin> puromycin
same,% of leucine enkephalin remaining in the nasal perfusate,"[1]; 100 µM inhibitor, 0 min",100.0±0.0%
same,% of leucine enkephalin remaining in the nasal perfusate,"[1]; 100 µM inhibitor, 5 min",96.7±2.4%
same,% of leucine enkephalin remaining in the nasal perfusate,"[1]; 100 µM inhibitor, 10 min",91.3±3.4%
same,% of leucine enkephalin remaining in the nasal perfusate,"[1]; 100 µM inhibitor, 20 min",82.4±4.1%
same,% of leucine enkephalin remaining in the nasal perfusate,"[1]; 100 µM inhibitor, 30 min",78.5±3.2%
same,% of leucine enkephalin remaining in the nasal perfusate,"[1]; 100 µM inhibitor, 45 min",73.6±2.2%
same,% of leucine enkephalin remaining in the nasal perfusate,"[1]; 100 µM inhibitor, 60 min",63.5±5.6%
same,% of leucine enkephalin remaining in the nasal perfusate,"[1]; 100 µM inhibitor, 90 min",48.9±6.7%
leuprolide,improvement of bioavailability over the oral route (factor),[3]; po,112 times
same,drug absorbed systemically,[3]; sc,over 65%
